From article PMC10117725, “From an Hsp90 - binding protein to a peptide drug” (microLife, 2022) come the findings set out here.

Where no end group is shown, it is not given here.

For the test, the system named is S. aureus Newman. The test is described as follows: Mouse S. aureus Newman bacteremia model. It counts as in vivo, NMRI mice. The protocol:
About 8- to 10-week-old female NMRI mice were purchased from Envigo (Venray, the Netherlands) and stored under standard temperature, light, and nutrition conditions in the animal facility of the Department of Rheumatology and Inflammation Research, University of Gothenburg. […] To study the effect of L15 on S. aureus bacteremia two separate experiments were performed. The mice were treated intraperitoneally with L15 (10 mg/kg) in 200 µl of PBS every 12 h, starting 2 h before inoculation with bacteria and continuing until the animals were sacrificed. Mice were challenged with septic dose of 2 × 10^6 CFU/mouse of S aureus Newman. To induce the S. aureus systemic infection in NMRI mice, 0.2 ml of S. aureus Newman suspension was inoculated intravenously into the tail vein of the mice. During the course of the experiments, the mice were regularly weighed until the mice were sacrificed. After sacrificing the mice at day 7, kidneys from mice were aseptically removed, homogenised, serially diluted with PBS and enumerated to quantify the bacterial CFUs.

Regarding TAKGHYFVTTFYRNG [L15], the “survival during the 7-day observation period” value (L15 10 mg/kg i.p. every 12 h, 40% of the control group died) was “all mice treated with L15 survived”. The “bacterial load in the kidneys” value (L15 10 mg/kg i.p. every 12 h, day 7, vs PBS control) was “No significant difference”. Besides, the “weight loss of infected mice” value (L15 10 mg/kg i.p. every 12 h from 2 h before i.v. 2 × 10^6 CFU/mouse, 7 days, vs PBS control) was “significantly reduced”. Also, the “reduction of lethality of S. aureus in the mouse model” value (mouse bacteremia model) is “about 40%”.
